# Test results published in ChEMBL document CHEMBL4396928, “Discovery of Selective, Orally Bioavailable Pyrazolopyridine Inhibitors of Protein Kinase Cθ (PKCθ) That Ameliorate Symptoms of Experimental Autoimmune Encephalomyelitis” (ACS Med Chem Lett, 2019).
# Legend:
# [1] = target: Protein kinase C theta type (Homo sapiens, UniProt Q04759); assay: Inhibition of human recombinant full length His tagged PKC theta expressed in baculovirus using ERMRPRKRQGSVRRRV peptide as substrate incubated for 60 mins in presence of [33P] gammaATP by microbeta liquid scintillation counter
# PBMC = assay: Inhibition of IL-2 secretion from human PBMC cells stimulated with anti-CD3/CD28 measured after 24 hrs by bead-based FLISA; type: functional, cell-based
# [2] = Half-life in iv dosed rat; type: ADME, organism-based; settings: in vivo
# [3] = Clearance in iv dosed rat; type: ADME, organism-based; settings: in vivo
# Homo sapiens [4] = species: Homo sapiens; assay: Selectivity ratio Ki for recombinant full length PKC delta (unknown origin) to Ki for human recombinant full length His-tagged PKC theta
# [5] = Volume of distribution at steady state in iv dosed rat; type: ADME, organism-based; settings: in vivo, read-out: Vdss
# Homo sapiens [6] = species: Homo sapiens; assay: Selectivity ratio Ki for recombinant full length PKC alpha (unknown origin) to Ki for human recombinant full length His-tagged PKC theta
# [7] = Dissociation constant, pKa of compound; type: physicochemical
# [8] = target: Protein kinase C alpha type (Homo sapiens, UniProt P17252); assay: Inhibition of recombinant full length PKC alpha (unknown origin) using RRRRRKGSFKRKA peptide as substrate measured after 15 mins in presence of ATP by spectrophotometric analysis
# [9] = Stability of compound in human liver microsomes assessed as compound remaining at 30 mins; type: ADME, Microsome; settings: read-out: Stability
# HFL1 = assay: Cytotoxicity against human HFL1 cells assessed as growth inhibition measured after 48 hrs by 3H-thymidine incorporation assay; type: cell-based
# [10] = target: Protein kinase C delta type (Homo sapiens, UniProt Q05655); assay: Inhibition of recombinant full length PKC delta (unknown origin) using ERMRPRKR- QGSVRRRV peptide as substrate measured after 15 mins in presence of ATP by spectrophotometric analysis
# [11] = Stability of compound in rat liver microsomes assessed as compound remaining at 30 mins; type: ADME, Microsome; settings: read-out: Stability
# [12] = target: Voltage-gated inwardly rectifying potassium channel KCNH2 (Homo sapiens, UniProt Q12809); assay: Inhibition of human ERG
# [13] = Permeability across apical to basolateral side in human Caco2 cells measured at 120 mins by LC-MS/MS analysis; type: ADME, cell-based; settings: Caco-2, read-out: permeability
# [14] = Efflux ratio of permeability in human Caco2 cells by LC-MS/MS analysis; type: ADME, cell-based; settings: Caco-2
# [15] = Unbound hepatic clearance in human hepatocytes assessed per million cells; type: ADME, cell-based, Hepatocyte
# [16] = Unbound hepatic clearance in rat hepatocytes assessed per million cells; type: ADME, cell-based, Hepatocyte
# [17] = Lipophilicity, logD of compound; type: physicochemical; settings: octanol/water
# [18] = target: Tyrosine-protein kinase JAK2 (Homo sapiens, UniProt O60674); assay: Inhibition of JAK2 (unknown origin) using polyE4Y peptide as substrate incubated for 60 mins in presence of [33P] gammaATP by microbeta liquid scintillation counter
# [19] = target: Rho-associated protein kinase (Homo sapiens, UniProt O75116+Q13464); assay: Inhibition of ROCK (unknown origin) using Myelin Basic Protein as substrate incubated for 60 mins in presence of [33P] gammaATP by microbeta liquid scintillation counter; type: protein assay
# Sequence of Protein kinase C delta type (Q05655 whole entry): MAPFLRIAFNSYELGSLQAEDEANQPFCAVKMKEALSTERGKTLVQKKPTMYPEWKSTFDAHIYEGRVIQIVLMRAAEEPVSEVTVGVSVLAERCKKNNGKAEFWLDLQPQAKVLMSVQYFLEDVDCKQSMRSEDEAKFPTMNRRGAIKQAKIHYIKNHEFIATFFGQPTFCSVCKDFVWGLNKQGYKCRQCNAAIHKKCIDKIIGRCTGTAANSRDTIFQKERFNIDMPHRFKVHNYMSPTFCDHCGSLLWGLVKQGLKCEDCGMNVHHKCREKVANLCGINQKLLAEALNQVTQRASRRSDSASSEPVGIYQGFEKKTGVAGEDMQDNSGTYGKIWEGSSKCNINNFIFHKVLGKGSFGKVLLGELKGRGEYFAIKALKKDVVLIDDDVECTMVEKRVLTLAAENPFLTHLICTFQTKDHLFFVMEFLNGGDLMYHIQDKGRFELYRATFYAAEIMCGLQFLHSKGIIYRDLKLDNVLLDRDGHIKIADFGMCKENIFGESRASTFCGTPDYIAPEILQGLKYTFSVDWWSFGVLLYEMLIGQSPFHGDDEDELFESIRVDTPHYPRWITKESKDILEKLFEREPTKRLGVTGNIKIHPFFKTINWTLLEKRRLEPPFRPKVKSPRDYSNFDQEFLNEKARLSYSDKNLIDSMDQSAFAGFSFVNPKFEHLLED
# Sequence of Protein kinase C theta type (Q04759 whole entry): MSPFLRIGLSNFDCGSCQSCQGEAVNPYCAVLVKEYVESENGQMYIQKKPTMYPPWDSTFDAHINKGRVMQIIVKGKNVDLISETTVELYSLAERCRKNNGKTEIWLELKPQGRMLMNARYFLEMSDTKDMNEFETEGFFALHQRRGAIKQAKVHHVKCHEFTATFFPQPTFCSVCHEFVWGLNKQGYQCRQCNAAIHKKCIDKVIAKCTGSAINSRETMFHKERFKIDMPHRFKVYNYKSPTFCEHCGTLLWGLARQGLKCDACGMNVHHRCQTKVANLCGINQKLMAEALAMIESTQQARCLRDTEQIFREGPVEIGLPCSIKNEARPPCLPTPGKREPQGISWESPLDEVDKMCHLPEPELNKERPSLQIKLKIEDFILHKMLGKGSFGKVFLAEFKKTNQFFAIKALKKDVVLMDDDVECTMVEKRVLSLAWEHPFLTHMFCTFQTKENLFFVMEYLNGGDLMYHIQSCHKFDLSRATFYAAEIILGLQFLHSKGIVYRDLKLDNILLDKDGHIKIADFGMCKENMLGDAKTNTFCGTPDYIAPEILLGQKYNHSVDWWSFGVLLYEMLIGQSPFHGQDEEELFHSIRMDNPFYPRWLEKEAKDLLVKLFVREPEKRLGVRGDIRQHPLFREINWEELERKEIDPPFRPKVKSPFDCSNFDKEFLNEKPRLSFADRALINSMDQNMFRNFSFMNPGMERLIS
# Sequence of Tyrosine-protein kinase JAK2 (O60674 whole entry): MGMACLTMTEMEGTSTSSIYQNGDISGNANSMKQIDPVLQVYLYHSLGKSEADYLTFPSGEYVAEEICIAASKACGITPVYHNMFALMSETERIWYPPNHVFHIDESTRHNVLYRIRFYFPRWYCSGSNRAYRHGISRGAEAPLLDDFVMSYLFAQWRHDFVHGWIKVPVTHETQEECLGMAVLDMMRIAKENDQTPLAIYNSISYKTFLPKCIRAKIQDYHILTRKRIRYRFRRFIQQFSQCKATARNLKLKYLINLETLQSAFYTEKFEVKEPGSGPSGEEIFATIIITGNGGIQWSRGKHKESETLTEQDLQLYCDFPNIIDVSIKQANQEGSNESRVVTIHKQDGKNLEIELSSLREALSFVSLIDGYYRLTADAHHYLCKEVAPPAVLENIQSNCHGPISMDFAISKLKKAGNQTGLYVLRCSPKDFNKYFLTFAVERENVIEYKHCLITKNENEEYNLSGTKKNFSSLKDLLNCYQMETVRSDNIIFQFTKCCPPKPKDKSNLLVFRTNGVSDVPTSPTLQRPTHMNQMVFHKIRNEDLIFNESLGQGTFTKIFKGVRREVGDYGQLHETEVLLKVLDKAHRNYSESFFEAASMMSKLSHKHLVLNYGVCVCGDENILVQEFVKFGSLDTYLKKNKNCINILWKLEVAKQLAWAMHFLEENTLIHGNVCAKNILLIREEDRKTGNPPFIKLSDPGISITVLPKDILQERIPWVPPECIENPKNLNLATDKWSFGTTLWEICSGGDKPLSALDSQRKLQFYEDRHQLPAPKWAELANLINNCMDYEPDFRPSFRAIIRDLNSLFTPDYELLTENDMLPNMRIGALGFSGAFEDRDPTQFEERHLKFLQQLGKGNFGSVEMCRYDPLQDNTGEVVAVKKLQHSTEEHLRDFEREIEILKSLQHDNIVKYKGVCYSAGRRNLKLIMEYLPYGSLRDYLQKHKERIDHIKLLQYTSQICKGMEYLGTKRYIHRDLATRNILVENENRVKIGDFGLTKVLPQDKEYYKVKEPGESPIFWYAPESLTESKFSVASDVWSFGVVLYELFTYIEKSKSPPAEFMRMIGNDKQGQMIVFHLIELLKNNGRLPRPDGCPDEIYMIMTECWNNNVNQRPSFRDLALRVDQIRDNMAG
# Sequence of Voltage-gated inwardly rectifying potassium channel KCNH2 (Q12809 whole entry): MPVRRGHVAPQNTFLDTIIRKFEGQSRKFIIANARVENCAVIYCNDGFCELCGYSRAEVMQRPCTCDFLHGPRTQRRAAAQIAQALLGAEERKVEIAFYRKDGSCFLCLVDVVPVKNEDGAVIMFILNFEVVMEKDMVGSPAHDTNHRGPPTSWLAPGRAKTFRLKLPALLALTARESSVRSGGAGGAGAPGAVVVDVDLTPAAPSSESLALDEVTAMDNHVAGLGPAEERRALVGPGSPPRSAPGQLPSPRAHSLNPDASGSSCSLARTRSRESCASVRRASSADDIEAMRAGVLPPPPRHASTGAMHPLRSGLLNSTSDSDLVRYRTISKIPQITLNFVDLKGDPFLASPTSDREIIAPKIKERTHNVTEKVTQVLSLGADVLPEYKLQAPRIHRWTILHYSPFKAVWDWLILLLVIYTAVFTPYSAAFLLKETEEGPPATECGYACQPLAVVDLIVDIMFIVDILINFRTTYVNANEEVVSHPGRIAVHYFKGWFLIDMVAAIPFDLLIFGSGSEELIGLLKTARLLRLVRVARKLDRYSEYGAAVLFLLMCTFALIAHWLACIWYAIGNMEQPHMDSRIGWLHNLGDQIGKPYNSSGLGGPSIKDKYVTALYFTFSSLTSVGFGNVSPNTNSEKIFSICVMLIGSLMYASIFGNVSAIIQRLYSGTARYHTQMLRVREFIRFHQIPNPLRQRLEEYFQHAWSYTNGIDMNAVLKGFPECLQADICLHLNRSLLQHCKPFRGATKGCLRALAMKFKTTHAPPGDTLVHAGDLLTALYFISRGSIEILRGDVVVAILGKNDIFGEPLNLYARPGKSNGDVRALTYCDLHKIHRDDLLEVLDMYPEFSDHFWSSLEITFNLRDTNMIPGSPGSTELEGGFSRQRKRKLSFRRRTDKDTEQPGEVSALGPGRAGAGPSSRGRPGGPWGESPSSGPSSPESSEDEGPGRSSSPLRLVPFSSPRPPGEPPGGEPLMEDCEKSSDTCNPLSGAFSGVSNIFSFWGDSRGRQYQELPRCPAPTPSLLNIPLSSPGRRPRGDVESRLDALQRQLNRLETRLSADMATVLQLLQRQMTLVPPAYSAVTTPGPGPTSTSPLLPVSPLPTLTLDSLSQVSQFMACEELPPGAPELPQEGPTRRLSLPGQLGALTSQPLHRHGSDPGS
SMILES,Ki [1],IC50 (PBMC),Ratio Ki (Homo sapiens [4]),Ratio Ki (Homo sapiens [6]),other results
CCC(C)(CN)c1cccc(-c2ccnc3[nH]nc(C(F)(F)F)c23)c1 (centres undefined),0.4 nM,10 nM,25,–,half-life [2]: 108 min; clearance [3]: 45 mL/min/kg; Vd [5]: 2.7 L/kg
NCC1(c2cccc(-c3ccnc4[nH]ncc34)c2)CCCC1,22 nM,350 nM,18,28,–
NCC1(c2cccc(-c3ccnc4[nH]ncc34)c2)CCCCC1,30 nM,580 nM,8,18,–
C#CCC(C)(CN)c1cccc(-c2ccnc3[nH]ncc23)c1 (centres undefined),0.2 nM,20 nM,36,149,–
CCc1cc(-c2ccnc3[nH]ncc23)cc(C(C)(CC)CN)c1 (centres undefined),14 nM,250 nM,39,–,–
CCC(C)(CN)c1cccc(-c2ccnc3[nH]ncc23)c1 (centres undefined),3 nM,170 nM,13 to 24,37,–
CCC(C)(CN)c1cccc(-c2ccnc3[nH]nc(C)c23)c1 (centres undefined),< 1 nM,100 nM,> 16,–,–
NCC1(c2cccc(-c3ccnc4[nH]ncc34)c2)CCC1,17 nM,300 nM,18,41,–
CCC(C)(C#N)c1cccc(-c2ccnc3[nH]ncc23)c1 (centres undefined),72 nM,2700 nM,–,–,–
NCC1(c2cccc(-c3ccnc4[nH]ncc34)c2)CCOCC1,9 nM,550 nM,111,93,–
CC(C)(CN)c1cccc(-c2ccnc3[nH]ncc23)c1,12 nM,330 nM,16,50,–
CCC(C)(CN)c1cccc(-c2ccnc3[nH]nc(Cl)c23)c1 (centres undefined),0.3 nM,20 nM,22,–,–
CCCc1cc(-c2ccnc3[nH]ncc23)cc(C(C)(CC)CN)c1 (centres undefined),32 nM,200 nM,39,–,–
NCC1(c2cccc(-c3ccnc4[nH]nc(C(F)(F)F)c34)c2)CCC1,2 nM,90 nM,–,–,pKa [7]: 8.8; Ki [8]: 57 nM; remaining at 0.5 h [9]: 81%; IC50 (HFL1): 1900 nM; Ki [10]: 60 nM; remaining at 0.5 h [11]: 88%; IC50 [12]: 3 µM
CC(C)(C#N)c1cccc(-c2ccnc3[nH]ncc23)n1,14 nM,–,–,–,Papp A→B at 2 h [13]: 20.1 ×10⁻⁶ cm/s; efflux ratio [14]: 0.95; Ki [8]: 465 nM; CL free [15]: 33 µL/min; CL free [16]: 24 µL/min; logD [17]: 2.9; Ki [18]: 86 nM; half-life [2]: 150 min; clearance [3]: 22 mL/min/kg; Ki [10]: 240 nM; Vd [5]: 1.22 L/kg; Ki [19]: 210 nM
CC(C)(C#N)c1cccc(-c2ccnc3[nH]ncc23)c1,28 nM,–,–,–,Papp A→B at 2 h [13]: 36 ×10⁻⁶ cm/s; efflux ratio [14]: 0.7; CL free [15]: 172 µL/min; CL free [16]: 58 µL/min; Ki [18]: 270 nM; half-life [2]: 276 min; clearance [3]: 12 mL/min/kg; Ki [10]: 584 nM; Vd [5]: 0.94 L/kg; Ki [19]: 560 nM
CCC(C)(CN)c1cc(C)cc(-c2ccnc3[nH]ncc23)c1 (centres undefined),5 nM,260 nM,24,–,–
